ChEMBL document CHEMBL1201862, “PubChem BioAssay data set” (2004)
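Tested at 5 concentrations; 48 h exposure; 96-well plates; endpoints linearly interpolated, else capped at highest concentration. GI50: concentration for 50% inhibition of growth.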 Calls of active or inactive are those of the source. No stated cut-off is given here; in the data, active = GI50 up to about 1.1 µM and inactive = higher.

Experiments:
Assay in all cases: growth of human tumour cells (NCI), 48 h
SNB-75 = test system: SNB-75
SF-295 = test system: SF-295
SNB-78 = test system: SNB-78
SN12C = test system: SN12C
SK-MEL-2 = test system: SK-MEL-2
TK-10 = test system: TK-10
COLO 205 = test system: COLO 205
A498 = test system: A498
DLD-1 = test system: DLD-1
786-0 = test system: 786-0
OVCAR-5 = test system: OVCAR-5
M14 = test system: M14
SK-OV-3 = test system: SK-OV-3
UACC-257 = test system: UACC-257
UACC-62 = test system: UACC-62
M19-MEL = test system: M19-MEL

Measured: GI50

O=C1N=C2N=C(c3ccc(Cl)cc3)N(c3ccc(Cl)cc3)N2Sc2ccccc21
inactive: SNB-75 > 100 µM | SF-295 64.6 µM | SNB-78 > 100 µM | SN12C > 100 µM | SK-MEL-2 > 100 µM | TK-10 > 100 µM | COLO 205 > 100 µM | A498 > 100 µM | DLD-1 > 100 µM | 786-0 > 100 µM | OVCAR-5 > 100 µM | M14 > 100 µM | SK-OV-3 > 100 µM | UACC-257 > 100 µM | UACC-62 > 100 µM | M19-MEL > 100 µM

CN1CCC(C(=O)NNc2ccccc2)CC1
inactive: SNB-75 > 80.2 µM | SF-295 2.12 µM | SNB-78 > 100 µM | SN12C > 100 µM | SK-MEL-2 9.02 µM | TK-10 18.3 µM | COLO 205 3.08 µM | A498 > 100 µM | DLD-1 12.8 µM | OVCAR-5 8.3 µM | M14 1.5 µM | SK-OV-3 > 100 µM | UACC-257 18.6 µM | UACC-62 2.48 µM | M19-MEL 13.9 µM

CC1CC(c2ccc([N+](=O)[O-])cc2)=Nc2ccccc2[S+]1[O-] (configuration not stated)
inactive: SNB-75 21.4 µM | SF-295 21.4 µM | SNB-78 43.6 µM | SN12C 37.6 µM | SK-MEL-2 44.5 µM | TK-10 27 µM | COLO 205 18 µM | A498 18.2 µM | DLD-1 14.3 µM | OVCAR-5 26.5 µM | M14 18.1 µM | SK-OV-3 23 µM | UACC-257 20.2 µM | UACC-62 17.7 µM | M19-MEL 15.9 µM

CC1(C)C(=O)OC(n2cc(F)c(=O)[nH]c2=O)C1=O (configuration not stated)
inactive: SNB-75 > 100 µM | SF-295 > 100 µM | SNB-78 > 100 µM | SN12C > 100 µM | SK-MEL-2 > 100 µM | TK-10 > 100 µM | COLO 205 > 100 µM | A498 > 100 µM | DLD-1 > 100 µM | 786-0 > 100 µM | OVCAR-5 > 100 µM | M14 > 100 µM | SK-OV-3 > 100 µM | UACC-257 > 100 µM | UACC-62 > 100 µM | M19-MEL > 100 µM
